Where two headings read alike, the source gives them in different places.
How the values were obtained:
Type in all cases: binding
HLA-A*68:01 [1] = target: T1, HLA-A*68:01 (Homo sapiens, UniProt P04439, A269V/D185E/E176V/E277Q/E87N/F33Y/G231S/I121M/I166T/I218V/L180W/L300P/L318F/N151K/P208A/P217A/Q86R/R169H/T345S); settings: duplicated experiments, positive binder >40%
HLA-A*68:01 [2] = target: T1, HLA-A*68:01
HLA-A*68:01 [3] = target: T1, HLA-A*68:01; settings: time points 0-8 h
HLA-B*58:01 [4] = target: T2, HLA-B*58:01 (Homo sapiens, UniProt P01889, A329T/C349S/D201E/D98Y/E176V/E187L/E204Q/E69T/G107R/I218V/I90N/K202T/L105A/L119I/N104I/N87E/Q89R/Q94S/R106L/R155S/R180L/R86G/S101N/S121R/S35A/S48A/T118I/V127L/V306I/V36M/Y140S/Y91M); settings: duplicated experiments, positive binder >40%
HLA-C*07:01 = HLA-C*07:01 (Homo sapiens, UniProt P10321, K90N/S123Y); settings: duplicated experiments, positive binder >40%
HLA-B*58:01 [5] = target: T2, HLA-B*58:01
HLA-B*58:01 [6] = target: T2, HLA-B*58:01; settings: time points 0-8 h
HLA-A*02:01 = HLA-A*02:01 (Homo sapiens, UniProt P04439, D140Y/D185E/D98H/E176V/E277Q/G131W/G231S/I119V/I121R/I166T/I218V/L300P/L318F/N151K/N90K/P208A/P217A/Q86G/Q94H/R138H/R169H/T345S); settings: plate-bound monomer 0.5 µg/ml, duplicated experiments, positive binder >40%
HLA-A*24:02 = HLA-A*24:02 (Homo sapiens, UniProt P04439, D101N/D140Y/D185E/E176V/E190D/F33S/G103R/G107R/I119L/I121M/I306V/K335N/L105A/L180Q/L300P/N151K/N90K/Q86E/Q94H/R106L/R138H/R89G/T104I/T345S/V100E/W191G/Y123F); settings: duplicated experiments, positive binder >40%
HLA-A*30:01 = HLA-A*30:01 (Homo sapiens, UniProt P04439, D140H/D185E/E176W/F33S/G80R/H175R/K168Q/R138E/R41S); settings: duplicated experiments, positive binder >40%
HLA-A*30:02 [7] = target: T3, HLA-A*30:02 (Homo sapiens, UniProt P04439, D101N/D140H/D185E/E176R/F33S/G80R/H175R/K168Q/Q94H/R138E/R41S/V100E); settings: duplicated experiments, positive binder >40%
HLA-B*07:02 = HLA-B*07:02 (Homo sapiens, UniProt P01889); settings: percent relative the binding of positive control peptide […]; duplicated experiments; positive binder >40%
HLA-A*30:02 [8] = target: T3, HLA-A*30:02
HLA-A*30:02 [9] = target: T3, HLA-A*30:02; settings: time points 0-8 h
[10] = percent relative the binding of positive control peptide […]
[11] = percent relative the binding of positive control peptide FLPSDFFPSV
[12] = percent relative the binding of positive control peptide RYLKDQQLL
[13] = percent relative the binding of positive control peptide KTKDIVNGL
[14] = percent relative the binding of positive control peptide KIQNFRVYY
[15] = percent relative the binding of positive control peptide KTGGPIYKR
[16] = percent relative the binding of positive control peptide IAMESIVIW
[17] = peptide titrated 10−4 to 10−9 M
[18] = percent relative the binding of positive control peptide KYFDEHYEY

Substance	Bind A*68:01 (HLA-A*68:01 [1]; [10]) [%]	Bind B*58:01 (HLA-B*58:01 [4]; [10]) [%]	Bind C*07:01 (HLA-C*07:01; [10]) [%]	Aff B*58:01 (ED50) (HLA-B*58:01 [5])	O-rate B*58:01 (t1/2) (HLA-B*58:01 [6]) [h]	Bind B*07:02 (HLA-B*07:02) [%]	other results
TMAMMARDT [Rv0288_80–88]	47	0	0	–	–	–	Aff A*68:01 (ED50) (HLA-A*68:01 [2]): 60000 nM; O-rate A*68:01 (t1/2) (HLA-A*68:01 [3]): 2.7 h
MSQIMYNYP [Rv0288_1–9]	29	57	10	4e-06 M	1.1	–	–
AAGGHNAVF	0	101	39	2e-07 M	0.7	9	Bind A*02:01 (HLA-A*02:01; [10]): 31%; Bind A*24:02 (HLA-A*24:02; [10]): 34%; Bind A*30:01 (HLA-A*30:01; [10]): 15%; Bind A*30:02 (HLA-A*30:02 [7]; [10]): 67%
AGCQTYKW E	4	121	0	2e-07 M	2	2	Bind A*02:01 (HLA-A*02:01; [10]): 12%; Bind A*24:02 (HLA-A*24:02; [10]): 31%; Bind A*30:01 (HLA-A*30:01; [10]): 3%; Bind A*30:02 (HLA-A*30:02 [7]; [10]): 18%
NGT HSWEYW	35	74	3	4E -08 M	1.9	4	Bind A*02:01 (HLA-A*02:01; [10]): 0%; Bind A*24:02 (HLA-A*24:02; [10]): 42%; Bind A*30:01 (HLA-A*30:01; [10]): 0%; Bind A*30:02 (HLA-A*30:02 [7]; [10]): 83%; Aff A*30:02 (ED50) (HLA-A*30:02 [8]): 1000 nM; O-rate A*30:02 (t1/2) (HLA-A*30:02 [9]): 1.6 h
LTKLAAAWG [Rv3875_36-44]	–	–	–	–	1.2	6	Bind A*02:01 (HLA-A*02:01; [11]): 15%; Bind A*24:02 (HLA-A*24:02; [12]): 0%; Bind A*30:01 (HLA-A*30:01; [13]): 13%; Bind A*30:02 (HLA-A*30:02 [7]; [14]): 0%; Bind A*68:01 (HLA-A*68:01 [1]; [15]): 21%; Bind B*58:01 (HLA-B*58:01 [4]; [16]): 47%; Aff B*58:01 (ED50) (HLA-B*58:01 [5]; [17]): 7e-07 M; Bind C*07:01 (HLA-C*07:01; [18]): 13%
TYQAWQAQW [Rv0288_50–58]	0	119	0	1e-07 M	1.0	–	–
TGITYQAWQ [Rv0288_47–55]	8	40	0	4e-06 M	0.8	–	–
SSTHEANTM [Rv0288_73–81]	0	41	7	2e-06 M	0.8	–	–
NTMAMMARD [Rv0288_79–87]	67	0	0	–	–	–	Aff A*68:01 (ED50) (HLA-A*68:01 [2]): 70000 nM; O-rate A*68:01 (t1/2) (HLA-A*68:01 [3]): 2.3 h
SLTKLAAAW [Rv3875_35–43]	–	–	–	–	0.9	5	Bind A*02:01 (HLA-A*02:01; [11]): 47%; Bind A*24:02 (HLA-A*24:02; [12]): 12%; Bind A*30:01 (HLA-A*30:01; [13]): 6%; Bind A*30:02 (HLA-A*30:02 [7]; [14]): 50%; Bind A*68:01 (HLA-A*68:01 [1]; [15]): 10%; Bind B*58:01 (HLA-B*58:01 [4]; [16]): 48%; Aff B*58:01 (ED50) (HLA-B*58:01 [5]; [17]): 4e-07 M; Bind C*07:01 (HLA-C*07:01; [18]): 8%
MAMMARDTA [Rv0288_81–89]	96	23	19	–	–	–	Aff A*68:01 (ED50) (HLA-A*68:01 [2]): 5000 nM; O-rate A*68:01 (t1/2) (HLA-A*68:01 [3]): 2.0 h
EANTMAMMA [Rv0288_77–85]	83	0	3	–	–	–	Aff A*68:01 (ED50) (HLA-A*68:01 [2]): 700000 nM; O-rate A*68:01 (t1/2) (HLA-A*68:01 [3]): 1.9 h
QAALQSAWQ [Rv0288_36–44]	17	62	7	5e-05 M	0.5	–	–
DTGITYQAW [Rv0288_46–54]	7	41	0	1e-06 M	2.3	–	–
RAYHSMSST [Rv0288_67–75m1]	–	32	0	2e-08 M	0.4	14	Bind A*30:02 (HLA-A*30:02 [7]; [10]): 7%
ANTMAMMAR [Rv0288_78–86]	147	0	12	–	–	–	Aff A*68:01 (ED50) (HLA-A*68:01 [2]): 3000 nM; O-rate A*68:01 (t1/2) (HLA-A*68:01 [3]): 2.4 h
GITYQAWQA [Rv0288_48–56]	0	46	0	9e-08 M	0.2	–	–

From publication PMC3608651, “A Broad Profile of Co-Dominant Epitopes Shapes the Peripheral Mycobacterium tuberculosis Specific CD8+ T-Cell Immune Response in South African Patients with Active Tuberculosis” (PLoS ONE, 2013)
